In one data set the test system is A549. Put plainly: Antiproliferative activity against human A549 cells assessed as reduction in cell viability at 50 uM incubated for 72 hrs by cellTiter-glo assay. It is filed as functional, cell-based. (ATP-based viability assays read luminescence as a measure of living cells.)
The test system of another data set is RERF-LC-MS. Put plainly: Antiproliferative activity against human RERF-LC-MS cells assessed as reduction in cell viability at 50 uM incubated for 72 hrs by cellTiter-glo assay. It is filed as functional, cell-based.
The subject of another data set is Pseudomonas aeruginosa. Put plainly: Antibacterial activity against Pseudomonas aeruginosa PA14. It is filed as functional, organism-based.
Another data set concerns NCI-H2228. Put plainly: Antiproliferative activity against human NCI-H2228 cells assessed as reduction in cell viability at 50 uM incubated for 72 hrs by cellTiter-glo assay. Type of data set: functional, cell-based.
The next data set deals with NCI-H647. Put plainly: Antiproliferative activity against human NCI-H647 cells assessed as reduction in cell viability at 50 uM incubated for 72 hrs by cellTiter-glo assay. It is filed as functional, cell-based.
For another data set, the system named is Saccharomyces cerevisiae. Put plainly: Antimicrobial activity against Saccharomyces cerevisiae YSD1. It is filed as functional, organism-based.
The subject of another data set is Escherichia coli. Put plainly: Antibacterial activity against Escherichia coli ATCC 25922. Type of data set: functional, organism-based.
Another data set relates to Bacillus subtilis. Put plainly: Antibacterial activity against Bacillus subtilis ATCC 23857. Type of data set: functional, organism-based.
For data set [1], the system named is Schizosaccharomyces pombe. Put plainly: Antifungal activity against Schizosaccharomyces pombe H1374. Type of data set: functional, organism-based.
Data set [2] in a line: Stability of compound at pH 9 assessed as half life measured at 0.5 to 92 hrs by LC-UV/MS analysis. It is filed as physicochemical. The following applies: buffer, time 0.5-92 hrs.
The nature of data set [3]: Stability of compound at pH 8 assessed as half life measured at 0.5 to 92 hrs by LC-UV/MS analysis. Type of data set: physicochemical. The conditions noted are these: buffer, time 0.5-92 hrs.
Data set [4] can be described thus: Stability of compound at pH 8.5 assessed as half life measured at 0.5 to 92 hrs by LC-UV/MS analysis. Type of data set: physicochemical. The following applies: buffer, time 0.5-92 hrs.
Data set [5] is described as follows: Stability of compound at pH 7.5 measured at 0.5 to 92 hrs by LC-UV/MS analysis. It is filed as physicochemical. The following applies: buffer, time 0.5-92 hrs.

Each structure is given as a SMILES string. Activity calls are given as the source filed them. The rule behind the calls is not given here.

For the compound `CCCCCC/C=C\CC(=O)N[C@@H](CO)C(=O)N[C@@H](C(=O)N[C@@H](Cc1c[nH]cn1)C(=O)N[C@H](C(=O)N[C@H](CC(C)C)C(=O)N[C@H](C(=O)O)C(C)C)C(C)C)C(C)C`, the result in the data set on A549, with RERF-LC-MS, with Pseudomonas aeruginosa, in the data set with NCI-H2228, in the data set on NCI-H647 and in the data set on Saccharomyces cerevisiae was inactive. Moreover, the outcome (in the data set with Escherichia coli; in the data set on Bacillus subtilis; in [1]) was inactive.

The term half-life denotes the time in which the quantity being followed falls by half. On to `CCCCCC/C=C\CC(=O)N[C@H]1COC(=O)[C@H](C(C)C)NC(=O)[C@@H](CC(C)C)NC(=O)[C@H](C(C)C)NC(=O)[C@H](Cc2c[nH]cn2)NC(=O)[C@@H](C(C)C)NC1=O`, for which the result in the data set on A549, with RERF-LC-MS, in the data set on NCI-H2228, in the data set with NCI-H647, in the data set on Saccharomyces cerevisiae and in the data set with Bacillus subtilis was Active. For the same compound, the outcome in data set [1] was Active. For the same compound, the half-life in [2] was 7 h; in data set [3], 5 h; in data set [4], 26 h. Moreover, the result in the data set on Pseudomonas aeruginosa and in the data set with Escherichia coli was inactive. Besides, the Stability result in data set [5] was “Stable”.

For the origin of these results see ChEMBL document CHEMBL5226391, “Valhidepsin Lipopeptides from Chromobacterium vaccinii: Structures, Biosynthesis, and Coregulation with FR900359 Production” (J Nat Prod, 2023).
